pIC50: −log10 of the molar value.
Target: 5HT2B receptors (Homo sapiens (Human), UniProt P41595)
Test: Radiolabel Binding Studies for Serotonin 5HT2B receptors, method 1 ([3H]LSD competition)
Conditions: for pIC50: [3H]LSD radioligand; for inhibition at 10 µM: single concentration 10 uM, inhibition of [3H]LSD binding, read-out: 5-HT2B % inhib @10 uM
Experimental: A solution of the compound of the disclosure to be tested is prepared as a 1-mg/ml stock in Assay Buffer (50 mM Tris-HCl, 10 mM MgCl2, 1 mM EDTA, pH 7.4) or DMSO according to its solubility. A 1-mg/ml stock of the reference compound 5-hydroxytryptamine (5-HT) is also prepared as a positive control. Eleven dilutions (5× assay concentration) of the compound of the disclosure and 5-HT are prepared in the Assay Buffer by serial dilution to yield final corresponding assay concentrations ranging from […].
A stock concentration of 5 nM [^3H]LSD (lysergic acid diethyl amide) is prepared in Assay Buffer. Aliquots (50 μl) of radioligand are dispensed into the wells of a 96-well plate containing 100 μl of Assay Buffer. Duplicate 50-μl aliquots of the compound of the disclosure test and 5-HT positive control reference compound serial dilutions are added.
Membrane fractions of cells expressing recombinant 5HT2B receptors (50 μL) are dispensed into each well. The membranes are prepared from stably transfected c ell lines expressing 5HT2B receptors cultured on 10-cm plates by harvesting PBS-rinsed monolayers, resuspending and lysing the monolayers in chilled, hypotonic 50 mM Tris-HCl, pH 7.4, centrifuging at 20,000×g, decanting the supernatant and storing at −80° C. The membrane preparations are resuspended in 3 ml of chilled Assay Buffer and homogenized by several passages through a 26 gauge needle before use in the assay.
The 250-μl reactions are incubated at room temperature for 1.5 hours, then harvested by rapid filtration onto 0.3% polyethyleneimine-treated, 96-well filter mats using a 96-well Filtermate harvester. Four rapid 500-μl washes are performed with chilled Assay Buffer to reduce non-specific binding. The filter mats are dried, then scintillant is added to the filters and the radioactivity retained on the filters is counted in a scintillation counter.
Raw data (dpm) representing total radioligand binding (i.e., specific+non-specific binding) are plotted as a function of the logarithm of the molar concentration of the competitor (i.e., test or reference compound). Non-linear regression of the normalized (i.e., percent radioligand binding compared to that observed in the absence of test or reference compound) raw data is performed in […] (GraphPad Software, Inc.) using the built-in three parameter logistic model describing ligand competition binding to radioligand-labeled sites: y=bottom+[(top−bottom)/(1+[…])] where “bottom” is the residual radioligand binding measured in the presence of 10 μM reference compound (i.e., non-specific binding) and “top” is the total radioligand binding observed in the absence of competitor. The log IC50 (i.e., the log of the ligand concentration that reduces radioligand binding by 50%) is thus estimated from the data and used to obtain the Ki by applying the Cheng-Prusoff approximation: Ki=IC50/(1+[ligand]/KD) where “[ligand]” is the assay radioligand concentration and “KD” is the affinity constant of the radioligand for the target receptor.
Compounds of the disclosure are also screened at a single concentration of 10 μM using the same method described for the Radiolabel Binding Studies for Serotonin 5HT2B receptors, method 1 to determine the percent inhibition of [^3H]LSD binding.

Chain of 5HT2B receptors (P41595 whole entry): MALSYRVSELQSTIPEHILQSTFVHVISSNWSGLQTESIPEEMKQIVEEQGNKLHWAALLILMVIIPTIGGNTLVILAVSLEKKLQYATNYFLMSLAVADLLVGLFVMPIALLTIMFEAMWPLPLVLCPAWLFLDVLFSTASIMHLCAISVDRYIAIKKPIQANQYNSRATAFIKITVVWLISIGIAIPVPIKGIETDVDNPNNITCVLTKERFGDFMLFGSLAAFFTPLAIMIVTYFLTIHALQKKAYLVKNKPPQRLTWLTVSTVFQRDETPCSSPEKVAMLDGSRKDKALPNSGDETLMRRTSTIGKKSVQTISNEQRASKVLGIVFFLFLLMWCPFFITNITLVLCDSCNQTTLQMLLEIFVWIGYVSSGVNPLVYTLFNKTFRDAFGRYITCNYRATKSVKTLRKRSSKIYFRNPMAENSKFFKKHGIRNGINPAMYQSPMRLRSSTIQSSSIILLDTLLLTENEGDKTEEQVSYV

Structure (SMILES) | pIC50 | inhibition at 10 µM [%]
CC(C)(C)N1CC(CN2CCN(C(c3ccccc3)c3ccccc3)CC2)OC1=O (stereo not shown) [Entry 6] | 5.73 | 59.3
O=C1OC(CN2CCN(C(c3ccccc3)c3ccccc3)CC2)CN1C1CC1 (stereo not shown) [Entry 7] | 6.53 | 87.6
O=C1OC(CN2CCN(C(c3ccccc3)c3ccccc3)CC2)CN1C1CCC1 (stereo not shown) [Entry 4] | 6.72 | 87.3
C=CCN1CC(CN2CCN(C(c3ccccc3)c3ccccc3)CC2)OC1=O (stereo not shown) [Entry 1] | 6.90 | 91.1

More lines, now with the values ahead:

pIC50 | inhibition at 10 µM [%] | Structure (SMILES)
6.56 | 84.9 | CC(C)N1CC(CN2CCN(C(c3ccccc3)c3ccccc3)CC2)OC1=O (stereo not shown) [Entry 3]
7.39 | 94.1 | O=C1OC(CN2CCN(C(c3ccccc3)c3ccccc3)CC2)CN1C1CCCC1 (stereo not shown) [Entry 5]
 | 91.4 | O=C1OC(CN2CCN(C(c3ccccc3)c3ccccc3)CC2)CN1C1CCCCC1 (stereo not shown) [Entry 2]

— patent US9464062B2, “Disubstituted oxazolidin-2-ones 5-hydroxytryptamine receptor 2B activity modulators” (TEMPLE UNIVERSITY—OF THE COMMONWEALTH SYSTEM OF HIGHER …, priority 2012, dated 2016)
